Values quoted from earlier work as cited in US20030100472A1, “Detergent tablet compositions” (Unilever Home & Personal Care USA, Division of Conopco, Inc., priority 2001, published 2003).
Read-outs that look alike come from different tables or passages of the source.

Compound	Water Solubility (g/100 g) (at 20° C., other materials)	Water Solubility (g/100 g) (grams of solid required to form a saturated solution in 100 grams of water at 20° C., highly water-soluble materials)
O=BO[O-].[Na+] [Sodium perborate anhydrous]	3.7	–
O=P(O)(O)OP(=O)(O)OP(=O)(O)O [Sodium tripolyphosphate anhydrous]	15	–
NC(N)=O [Urea]	–	>100
